Where two headings read alike, the source gives them in different places.
Key:
hPTP1B1–400 [1] = molecular target: T1, hPTP1B1–400 (Homo sapiens, UniProt P18031); experiment: PTP1B activity assay, long form hPTP1B1–400 (p‐NPP); assay type: biochemical; set-up: hPTP1B1–400 (the long form with an intrinsically disordered C‐terminal regulatory domain); conditions: for IC50: ± S.D, p‐NPP substrate, 15 min at 37 °C, triplicate
T1 sequence (P18031 1-400): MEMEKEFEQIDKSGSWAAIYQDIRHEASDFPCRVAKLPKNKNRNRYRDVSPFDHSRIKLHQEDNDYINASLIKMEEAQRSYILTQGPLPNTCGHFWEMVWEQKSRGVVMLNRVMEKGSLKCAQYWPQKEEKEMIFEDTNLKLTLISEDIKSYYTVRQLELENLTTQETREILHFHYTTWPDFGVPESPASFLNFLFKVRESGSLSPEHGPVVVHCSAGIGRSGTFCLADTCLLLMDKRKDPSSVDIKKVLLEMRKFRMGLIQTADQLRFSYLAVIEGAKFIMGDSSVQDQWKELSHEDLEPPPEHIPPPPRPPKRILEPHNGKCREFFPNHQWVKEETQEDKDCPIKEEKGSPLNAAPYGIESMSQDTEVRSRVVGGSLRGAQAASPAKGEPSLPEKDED
Description: The inhibitory activity of PTP1B was assessed using two enzyme variants: hPTP1B1–285 (the short form with an N‐terminal catalytic domain) and hPTP1B1–400 (the long form with an intrinsically disordered C‐terminal regulatory domain). […] According to Coronel‐Tovar et al., the disordered region of the C‐terminal domain plays a crucial role in modulating PTP1B enzymatic activity.^[ [30] ^] […] Different concentrations of the compounds were evaluated to determine their IC50 values (Table 1 ).
Recombinant human protein tyrosine phosphatase 1B, consisting of 400 and 285 amino acid residues, was used.^[ [35] ^] […] Aliquots of 0–10 µL of the test compounds (triplicate) were taken and incubated for 15 min at 37 °C with 85 µL of Tris buffer solution (50 mM, pH 6.8) containing PTP1B enzyme and 5 µL of p‐nitrophenyl phosphate substrate (p‐NPP, 10 mM). Absorbance was then measured at a wavelength of 405 nm. The inhibitory activity was determined according to Equation (1). (1) % PTP1B=(A405b/A405c)×100 where % PTP1B: Is the percentage of inhibition. A 405c: Is the corrected absorbance of the blank (A 405initial–A 405final). A 405b: Is the corrected absorbance of the compounds (A 405control–A 405compound).

TCPTP = molecular target: T2, TCPTP (Homo sapiens, UniProt P17706); experiment: T‐cell protein tyrosine phosphatase (TCPTP) activity assay (p‐NPP); assay type: biochemical; conditions: for TCPTP inhibition (in words): up to 100 μM
T2 sequence (P17706 1-415): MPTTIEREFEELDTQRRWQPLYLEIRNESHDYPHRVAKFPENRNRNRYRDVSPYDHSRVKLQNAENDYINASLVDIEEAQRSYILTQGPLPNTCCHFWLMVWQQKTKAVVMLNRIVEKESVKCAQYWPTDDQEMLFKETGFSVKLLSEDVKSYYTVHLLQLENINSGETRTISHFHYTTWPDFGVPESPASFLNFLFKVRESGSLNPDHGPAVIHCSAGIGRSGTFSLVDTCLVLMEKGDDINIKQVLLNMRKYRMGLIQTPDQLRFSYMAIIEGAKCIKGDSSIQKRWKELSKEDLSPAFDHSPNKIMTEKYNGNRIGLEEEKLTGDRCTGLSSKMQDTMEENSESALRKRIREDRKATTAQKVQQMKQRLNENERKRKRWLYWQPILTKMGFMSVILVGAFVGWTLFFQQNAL
Description: The effectiveness and safety of protein tyrosine phosphatase (PTP) inhibitors depend on their specificity. PTP1B and TCPTP serve different functions: PTP1B is involved in metabolism and cancer, while TCPTP regulates immune function. Inhibiting TCPTP could impact the immune response, whereas inhibiting PTP1B may benefit metabolic diseases without these side effects.^[ [20] ^, [34] ^, [35] ^] […] These compounds were assessed up to 100 μM (Table 1).
TCPTP enzyme reported by Mendoza et al. was used for this assay. […] Aliquots of 0–10 µL (triplicate) of the newly synthesized compounds, positive control, and solvent were taken. These were incubated with 85 µL of enzyme solution (Tris, 50 mM, pH 6.8, TCPTP) and 5 µL of substrate (p‐NPP, 10 mM) for 15 min at 37 °C.

hPTP1B1–400 [2] = molecular target: T1, hPTP1B1–400; experiment: Kinetic studies of PTP1B (hPTP1B1–400); conditions: for Inhibition type: hPTP1B1–400; for K m / V max: hPTP1B1–400 with inhibitor;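 for all read-outs here: enzyme kinetics run across a range of substrate and inhibitor levels, control lacking inhibitor, triplicate runs, parameters derived by fitting Michaelis–Menten style equations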
Description: Kinetic analyses were performed at various substrate and inhibitor concentrations.
The negative control was prepared with the enzyme and substrate in the absence of the inhibitor. Experiments were conducted in triplicate.^[ [30] ^] […] The kinetic parameters of enzyme inhibition, K m and V max, were determined by fitting the data to the Michaelis‐Menten model, Equation (3) (OriginPro 2018 (64‐bit) SR1). (3) y=VmaxX/Km+X´ where V max: is the maximum velocity, X: is the inhibitor concentration, K m: Michaelis constant.
(4) y=Vmax(X)/(Km/1+I/Ki)+X where V max: maximum velocity, X: substrate concentration, I: inhibitor concentration, K m: Michaelis constant, K i : inhibition constant.

PTP1B = conditions: cited from earlier work
hPTP1B1−322 = system: hPTP1B1−322; set-up: method as in PMID 37628991; conditions: previous research, cited from earlier work; for IC50: read-out: IC50 against hPTP1B1−322; for Ki: read-out: K i against hPTP1B1−322
[3] = ± S.D, assessed up to 100 μM, read-out: TCPTP IC50

SMILES	IC50 (hPTP1B1–400 [1])	IC50 (TCPTP; [3])	Inhibition type (hPTP1B1–400 [2])	K m (hPTP1B1–400 [2]; ± S.D)	V max (hPTP1B1–400 [2]; ± S.D)	TCPTP inhibition (in words) (TCPTP)	further results
CC1(C(=O)O)CCC2(C)CCC3(C)C(=CCC4C5(C)Cc6c([nH]c7ccc(C(F)(F)F)cc67)C(C)(C)C5CCC43C)C2C1 (centres unmarked) [Compound 3a]	4.44 ± 0.22 µM	> 100 µM	–	–	–	–	potency relative to 18α‐GA (hPTP1B1–400 [1]; hPTP1B1–400): half as potent
CC1(C(=O)O)CCC2(C)CCC3(C)C(=CCC4C5(C)Cc6c([nH]c7ccc(C(F)(F)F)cc67)C(C)(C)C5CCC43C)C2C1 (centres unmarked) [Compound 3b]	2.84 ± 0.26 µM	> 100 µM	uncompetitive inhibition	530 ± 80 µM	0.63 ± 0.06 mM/min	–	Ki (hPTP1B1–400 [2]; K i, ± S.D, hPTP1B1–400, p‐NPP 0.1 to 0.5 mM): 1.16 ± 0.13 µM
[Na+].[Na+].[Na+].[O]=[V]([O-])([O-])[O-] [SOV, sodium orthovanadate]	–	–	–	–	–	inhibited both PTP1B and TCPTP	type of PTP1B inhibition (PTP1B): nonselective, competitive, and reversible inhibitor
Cc1ccc(-n2ncc3c2C(C)(C)C2CCC4(C)C(CC=C5C6CC(C)(C(=O)O)CCC6(C)CCC54C)C2(C)C3)cc1 (centres unmarked) [Compound 5b]	2.54 ± 0.05 µM	> 100 µM	–	–	–	–	–
Cc1ccc(C(=O)Nc2ccc(S(=O)(=O)O)c3cc(S(=O)(=O)O)cc(S(=O)(=O)O)c23)cc1NC(=O)c1cccc(NC(=O)Nc2cccc(C(=O)Nc3cc(C(=O)Nc4ccc(S(=O)(=O)O)c5cc(S(=O)(=O)O)cc(S(=O)(=O)O)c45)ccc3C)c2)c1 [SU, suramin]	–	–	–	–	–	–	type of PTP1B inhibition (PTP1B): competitive and reversible inhibitor
CC1(C)[C@@H](O)CC[C@]2(C)[C@H]3C(=O)C=C4[C@@H]5C[C@@](C)(C(=O)O)CC[C@]5(C)CC[C@@]4(C)[C@]3(C)CC[C@@H]12 [18β‐GA, 18β‐glycyrrhetinic acid]	–	–	uncompetitive inhibition	2830 ± 960 µM	3.13 ± 0.94 mM/min	do not inhibit TCPTP	IC50 (TCPTP): > 100 µM; type of inhibition against hPTP1B1−322 (hPTP1B1−322): competitive inhibition; IC50 (hPTP1B1−322): 26.1 µM; Ki (hPTP1B1−322): 16.2 µM
Cc1ccc(-n2ncc3c2C(C)(C)C2CCC4(C)C(CC=C5C6CC(C)(C(=O)O)CCC6(C)CCC54C)C2(C)C3)cc1 (centres unmarked) [Compound 5a]	2.05 ± 0.09 µM	> 100 µM	–	–	–	–	–
CC1(C)[C@@H](O)CC[C@]2(C)[C@H]3C(=O)C=C4[C@H]5C[C@@](C)(C(=O)O)CC[C@]5(C)CC[C@@]4(C)[C@]3(C)CC[C@@H]12 [18α‐GA, 18α‐glycyrrhetinic acid]	–	–	uncompetitive inhibition	2110 ± 680 µM	1.94 ± 0.54 mM/min	do not inhibit TCPTP	IC50 (TCPTP): > 100 µM; type of inhibition against hPTP1B1−322 (hPTP1B1−322): competitive inhibition; IC50 (hPTP1B1−322): 10.4 µM; Ki (hPTP1B1−322): 3.17 µM

— article PMC12640663 (Chemmedchem, 2025)
